In patent US9416123B2, “Kinase modulators for the treatment of cancer” (Synovo GmbH, priority 2011, dated 2016):
pIC50: −log10 of the molar value.

Key:
B-Raf V600E = B-Raf V600E (Homo sapiens (Human), UniProt P15056, V600E); assay: Kinase assay (33P FlashPlate) B-Raf V600E; settings: read-out: IC50 B-Raf V600E (n = 1); Table 1, n = 1
Protocol: (§1) FlashPlates from Perkin Elmer (Boston, Mass., USA) with a 50 μl reaction volume are used. The reaction cocktail was pipetted in 4 steps in the following order: 15 μl of ATP solution (in H2O), 20 μl of assay buffer (see below), 5 μl of test sample in 10% DMSO, 10 μl of enzyme/substrate mixture (in H2O). […] Certain assays also contained 1 mM CaCl2, 4 mM EDTA, 5 μg/ml Phosphatidylserine and 1 μg/ml 1.2-Dioleyl-glycerol. The MYLK2, CAMK1D, CAMK2A, CAMK2B, CAMK2D, CAMK4, CAMKK2, DAPK2 and EEF2K assays additionally contained 1 μg/ml Calmodulin and 0.5 mM CaCl2. The PRKG1 and PRKG2 assays additionally contained 1 μM cGMP. Recombinant Protein Kinases: All protein kinases were expressed in Sf9 insect cells or in E. coli as recombinant GST-fusion proteins or His-tagged proteins. All kinases were produced from human cDNAs, except JAK2, for which the mouse cDNA was used. […] The purity of the protein kinases was examined by SDS-PAGE/coomassie staining. The identity of the protein kinases was checked by mass spectroscopy. Assays were made under license from Chemicon International Inc. for JAK2. […] The reaction was stopped with 50 μl of 2% (v/v) H3PO4, plates were aspirated and washed two times with 200 μl 0.9% (w/v) NaCl. All assays were performed with a BeckmanCoulter Biomek 2000/SL robotic system.

VEGFR-2 = VEGFR-2 (Homo sapiens (Human), UniProt P35968); assay: Kinase assay (33P FlashPlate) VEGFR-2; settings: read-out: IC50 VEGFR-2 (n = 1); Table 1, n = 1
Protocol: as §1

Src = Src (Homo sapiens (Human), UniProt P12931); assay: Kinase assay (33P FlashPlate) Src; settings: read-out: IC50 Src (n = 1); Table 1, n = 1
Src, sequence (P12931 whole entry, looked up): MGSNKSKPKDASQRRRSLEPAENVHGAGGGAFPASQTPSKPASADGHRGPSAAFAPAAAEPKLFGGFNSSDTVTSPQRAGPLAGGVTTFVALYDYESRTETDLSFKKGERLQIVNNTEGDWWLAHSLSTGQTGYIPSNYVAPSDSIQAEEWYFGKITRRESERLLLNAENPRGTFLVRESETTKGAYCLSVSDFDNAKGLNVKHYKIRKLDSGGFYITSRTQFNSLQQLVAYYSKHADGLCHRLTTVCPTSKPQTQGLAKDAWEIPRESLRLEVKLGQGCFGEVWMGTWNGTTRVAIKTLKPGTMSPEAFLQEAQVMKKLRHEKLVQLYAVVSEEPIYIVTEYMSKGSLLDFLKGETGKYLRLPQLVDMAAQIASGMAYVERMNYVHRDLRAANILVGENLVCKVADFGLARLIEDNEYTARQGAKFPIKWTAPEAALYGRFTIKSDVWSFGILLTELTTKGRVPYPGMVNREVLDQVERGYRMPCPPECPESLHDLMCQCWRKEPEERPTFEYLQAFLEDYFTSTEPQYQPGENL
Protocol: as §1

RIPK2 = RIPK2 (Homo sapiens (Human), UniProt O43353); assay: Kinase assay (33P FlashPlate) RIPK2; assay type: biochemical; settings: Table 3
RIPK2, sequence (O43353 whole entry): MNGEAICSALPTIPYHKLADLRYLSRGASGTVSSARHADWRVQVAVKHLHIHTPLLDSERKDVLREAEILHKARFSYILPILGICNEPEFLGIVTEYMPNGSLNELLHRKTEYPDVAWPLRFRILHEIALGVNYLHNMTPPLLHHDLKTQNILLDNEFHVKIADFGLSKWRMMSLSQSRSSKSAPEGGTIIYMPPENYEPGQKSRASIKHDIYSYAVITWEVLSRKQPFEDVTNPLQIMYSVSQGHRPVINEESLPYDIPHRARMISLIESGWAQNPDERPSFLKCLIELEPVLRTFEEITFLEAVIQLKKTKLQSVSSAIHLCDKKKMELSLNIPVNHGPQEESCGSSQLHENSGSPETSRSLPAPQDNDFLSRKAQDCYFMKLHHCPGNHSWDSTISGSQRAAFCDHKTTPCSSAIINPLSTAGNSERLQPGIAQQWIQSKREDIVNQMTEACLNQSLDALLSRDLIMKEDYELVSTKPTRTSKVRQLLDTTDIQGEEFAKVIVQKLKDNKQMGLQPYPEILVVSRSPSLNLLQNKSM

B-Raf V600E, sequence (P15056 whole entry V600E): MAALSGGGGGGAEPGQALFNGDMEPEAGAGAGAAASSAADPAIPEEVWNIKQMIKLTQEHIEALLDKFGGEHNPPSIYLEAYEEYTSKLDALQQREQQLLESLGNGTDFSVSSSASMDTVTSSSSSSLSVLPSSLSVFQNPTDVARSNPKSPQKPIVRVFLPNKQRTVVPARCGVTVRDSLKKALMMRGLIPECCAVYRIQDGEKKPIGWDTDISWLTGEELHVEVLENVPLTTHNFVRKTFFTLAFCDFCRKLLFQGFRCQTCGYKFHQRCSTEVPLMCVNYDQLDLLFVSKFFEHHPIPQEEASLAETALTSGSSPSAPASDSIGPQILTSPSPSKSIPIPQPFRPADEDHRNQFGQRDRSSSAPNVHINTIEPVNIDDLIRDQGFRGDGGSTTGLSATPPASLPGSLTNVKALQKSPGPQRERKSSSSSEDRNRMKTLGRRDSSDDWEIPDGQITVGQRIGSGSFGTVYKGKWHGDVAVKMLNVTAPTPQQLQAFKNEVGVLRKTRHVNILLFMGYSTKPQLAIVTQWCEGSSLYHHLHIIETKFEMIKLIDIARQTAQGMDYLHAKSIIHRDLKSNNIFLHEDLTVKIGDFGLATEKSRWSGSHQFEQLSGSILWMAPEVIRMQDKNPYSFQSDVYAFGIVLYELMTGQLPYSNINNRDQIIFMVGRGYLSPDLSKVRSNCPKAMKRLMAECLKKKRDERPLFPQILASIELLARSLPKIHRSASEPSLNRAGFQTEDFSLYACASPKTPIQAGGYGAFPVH
VEGFR-2, sequence (P35968 20-1356): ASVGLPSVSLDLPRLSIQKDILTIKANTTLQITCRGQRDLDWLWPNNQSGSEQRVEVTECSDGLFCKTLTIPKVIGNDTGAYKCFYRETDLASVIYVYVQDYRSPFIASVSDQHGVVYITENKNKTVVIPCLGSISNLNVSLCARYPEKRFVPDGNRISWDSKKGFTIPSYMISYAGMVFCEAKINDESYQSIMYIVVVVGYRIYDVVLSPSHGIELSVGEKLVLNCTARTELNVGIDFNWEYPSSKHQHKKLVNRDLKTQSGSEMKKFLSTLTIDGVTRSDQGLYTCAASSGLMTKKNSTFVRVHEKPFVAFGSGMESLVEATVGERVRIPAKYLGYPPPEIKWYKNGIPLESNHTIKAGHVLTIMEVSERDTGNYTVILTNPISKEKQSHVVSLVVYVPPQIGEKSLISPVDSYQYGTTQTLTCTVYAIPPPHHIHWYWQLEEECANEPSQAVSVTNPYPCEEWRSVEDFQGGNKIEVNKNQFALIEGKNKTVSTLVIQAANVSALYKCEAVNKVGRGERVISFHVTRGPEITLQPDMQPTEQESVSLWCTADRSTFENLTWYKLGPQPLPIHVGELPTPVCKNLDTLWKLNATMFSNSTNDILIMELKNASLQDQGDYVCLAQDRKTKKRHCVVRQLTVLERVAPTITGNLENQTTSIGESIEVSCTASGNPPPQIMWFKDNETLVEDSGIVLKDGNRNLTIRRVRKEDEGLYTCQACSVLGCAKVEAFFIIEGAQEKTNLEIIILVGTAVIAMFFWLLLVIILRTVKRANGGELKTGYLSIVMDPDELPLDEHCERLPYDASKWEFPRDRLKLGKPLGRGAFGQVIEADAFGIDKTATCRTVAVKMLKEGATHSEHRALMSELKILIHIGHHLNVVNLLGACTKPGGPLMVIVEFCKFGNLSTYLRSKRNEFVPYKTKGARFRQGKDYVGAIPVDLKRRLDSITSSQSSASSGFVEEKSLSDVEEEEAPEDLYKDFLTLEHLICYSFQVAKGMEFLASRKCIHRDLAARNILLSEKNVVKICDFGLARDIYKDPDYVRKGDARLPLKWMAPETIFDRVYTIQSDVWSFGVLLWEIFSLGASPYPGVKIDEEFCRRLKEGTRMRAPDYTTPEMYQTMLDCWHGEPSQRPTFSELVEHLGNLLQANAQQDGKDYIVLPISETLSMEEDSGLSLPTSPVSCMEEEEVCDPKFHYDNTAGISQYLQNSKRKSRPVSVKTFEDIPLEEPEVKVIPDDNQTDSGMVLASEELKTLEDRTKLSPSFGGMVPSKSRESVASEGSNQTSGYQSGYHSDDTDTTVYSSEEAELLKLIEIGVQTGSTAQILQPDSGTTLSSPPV

pIC50 (B-Raf V600E)	pIC50 (VEGFR-2)	pIC50 (Src)	melting point [°C]	pIC50 (RIPK2)	Structure (SMILES)
6.05	5.62	4.28	–	–	Nc1c(-c2ccc(F)cc2)c(-c2ccncc2)nn1-c1ccccc1 [Compound 5, 4-(4-Fluorophenyl)-1-phenyl-3-(pyridine-4-yl)-1H-pyrazol-5-amine]
< 4.00	4.06	< 4.00	–	–	Nc1cc(-c2ccncc2)nn1-c1c(Cl)cc(Cl)cc1Cl [Compound 19, 3-(Pyridin-4-yl)-1-(2,4,6-trichlorophenyl)-1H-pyrazol-5-amine]
–	–	–	–	7.39	Nc1c(-c2ccc(F)cc2)c(-c2ccncc2)nn1-c1c(Cl)cc(Cl)cc1Cl [Compound 6]

The next lines start with the molecule.

Structure (SMILES)	pIC50 (B-Raf V600E)	pIC50 (VEGFR-2)	pIC50 (Src)	melting point [°C]	pIC50 (RIPK2)
Clc1cc(Cl)c(N/N=C/c2ccncc2)c(Cl)c1 [Compound 3a]	5.60	6.68	5.70	–	–
NC(=O)c1c(-c2ccncc2)nn(-c2c(Cl)cc(Cl)cc2Cl)c1N [Compound 14, 5-Amino-3-(pyridin-4-yl)-1-(2,4,6-trichlorophenyl)-1H-pyrazole-4-carboxamide]	< 4.00	4.51	5.19	–	–
COc1ccc(-n2nc(-c3ccncc3)c(-c3ccc(F)cc3)c2N)cc1 [Compound 8]	6.07	5.72	4.64	200	–
NC(=O)c1c(-c2ccncc2)nn(-c2ccccc2)c1N [Compound 18, 5-Amino-1-phenyl-3-(pyridine-4-yl)-1H-pyrazole-4-carboxamide]	4.19	4.32	4.72	–	–
CCOC(=O)c1c(-c2ccncc2)nn(-c2c(Cl)cc(Cl)cc2Cl)c1N [Compound 15, Ethyl 5-amino-3-(pyridin-4-yl)-1-(2,4,6-trichlorophenyl)-1H-pyrazole-4-carboxylate]	< 4.00	< 4.00	< 4.00	–	–
Nc1c(C(=O)O)c(-c2ccncc2)nn1-c1c(Cl)cc(Cl)cc1Cl [Compound 16, 5-Amino-3-(pyridine-4-yl)-1-(2,4,6-trichlorophenyl)-1H-pyrazole-4-carboxylic acid]	< 4.00	4.37	4.26	208	–
Fc1ccc(-c2cn(-c3ccc(C(F)(F)F)cc3)nc2-c2ccncc2)cc1 [Compound 20]	5.57	4.57	4.92	–	–
N#Cc1ccc(-n2nc(-c3ccncc3)c(-c3ccc(F)cc3)c2N)cc1 [Compound 11, 4-(5-Amino-4-(4-fluorophenyl)-3-(pyridine-4-yl)-1H-pyrazol-1-yl)benzonitrile]	5.77	5.89	< 4.00	–	–
